How the values were obtained:
HepG2 cells [1] = experiment: Lipid droplet and TG levels in liver cancer cell line HepG2; format: cell-based, human
Procedure: (A) RT-qPCR analysis of DGAT1 vs. DGAT2 mRNA expression in GBM cells (U251 and GBM30) and in liver cancer cell line (HepG2). The results are shown as mean±SD (n=3). Statistical significance was determined by a paired Student's t-test. *P<0.01; n.s., not significant. (B) Representative fluorescence imaging of LDs stained with BODIPY 493/503 (green) (upper panels) and TLC analysis of TG levels (lower panels) in GBM and liver cancer cells after treatments with the DGAT1 inhibitor A-922500 (20 μg/ml) or DGAT2 inhibitor PF-06424439 ([…]) alone or in combination for 24 hr. Nuclei were stained with Hoechst 33342 (blue). Scale bar, 10 m. LDs were quantified by the ImageJ software in more than 30 cells in each treatment group (mean±SEM). TG levels were quantified by the ImageJ software and normalized to the untreated control group (mean±SD, n=3). Statistical significance was determined by one-way ANOVA. * P<0.001; #P<0.05. (C) Percentage of dead GBM or liver cancer cells after treatment with DGAT1 or DGAT2 inhibitors alone or in combination for 3 days as in panel B. Live and dead cells were counted after trypan blue staining (mean SD, n=3). Statistical significance was determined by one-way ANOVA. * P<0.0001. (D) Western blot analysis of DGAT1 expression in membrane extracts from GBM and liver cancer cells after infection with shRNA-expressing lentivirus against DGAT1 for 48 hr. PDIA1, an ER protein marker, was used as an internal control. (E) RT-qPCR analysis of DGAT2 mRNA expression in GBM and liver cancer cells after infection with shRNA-expressing lentivirus against DGAT2 for 48 hr. The expression level was normalized to control cells and shown as mean±SD (n=3). Statistical significance was determined by one-way ANOVA. * P<0.01. (F) Representative fluorescence images of LDs stained with BODIPY 493/503 (upper panels) and TLC analysis of TG levels (lower panels) in GBM and liver cancer cells after lentivirus-mediated shRNA knockdown of DGAT1 or DGAT2 alone or in combination for 48 hr. Scale bar, 10 m. Quantification and significance analysis of LDs and TG levels in different groups were the same as in panel B. * P<0.001; #P<0.05. (G) Percentage of dead GBM or liver cancer cells after lentivirus-mediated shRNA knockdown of DGAT1 or DGAT2 alone or in combination for 4 days. Cell death percentage and significance were determined as in panel c (mean±SD, n=3). *P<0.0001; #P<0.001. […]
For live cells, lipid droplets were stained with BODIPY 493/503 ([…]) (Cat #D-3922; Life Technologies) for 30 min and visualized by confocal microscopy (Carl Zeiss LSM510 Meta, 63×/1.4 NA oil). More than 30 cells were analyzed and LD numbers were quantified with the Image J software (NIH) in a 3D stack, as previously described in Geng 2016. […]

HepG2 cells [2] = experiment: HepG2 cell death, trypan blue counting; format: cell-based, human; conditions: DGAT1 and DGAT2 inhibitors alone or in combination, 3 days
Procedure: (A) RT-qPCR analysis of DGAT1 vs. DGAT2 mRNA expression in GBM cells (U251 and GBM30) and in liver cancer cell line (HepG2). The results are shown as mean±SD (n=3). Statistical significance was determined by a paired Student's t-test. *P<0.01; n.s., not significant. (B) Representative fluorescence imaging of LDs stained with BODIPY 493/503 (green) (upper panels) and TLC analysis of TG levels (lower panels) in GBM and liver cancer cells after treatments with the DGAT1 inhibitor A-922500 (20 μg/ml) or DGAT2 inhibitor PF-06424439 ([…]) alone or in combination for 24 hr. Nuclei were stained with Hoechst 33342 (blue). Scale bar, 10 m. LDs were quantified by the ImageJ software in more than 30 cells in each treatment group (mean±SEM). TG levels were quantified by the ImageJ software and normalized to the untreated control group (mean±SD, n=3). Statistical significance was determined by one-way ANOVA. * P<0.001; #P<0.05. (C) Percentage of dead GBM or liver cancer cells after treatment with DGAT1 or DGAT2 inhibitors alone or in combination for 3 days as in panel B. Live and dead cells were counted after trypan blue staining (mean SD, n=3). Statistical significance was determined by one-way ANOVA. * P<0.0001. […] Statistical significance was determined by one-way ANOVA. * P<0.01. […] Cell death percentage and significance were determined as in panel c (mean±SD, n=3). *P<0.0001; #P<0.001. […]

[3] = inhibition of both enzymes (A-922500 + PF-06424439)
[4] = single inhibitor, 20 μg/ml, 24 hr

Row | Compound | LDs/TG levels (HepG2 cells [1]; [3]) | LDs/TG levels (HepG2 cells [1]; [4]) | cell death of HepG2 cells (HepG2 cells [2])
1 | O=C(Nc1ccccc1)Nc1ccc(-c2ccc(C(=O)[C@@H]3CCC[C@H]3C(=O)O)cc2)cc1 [A-922500] | strongly reduce | only slightly decreased | inhibition of both enzymes was required for cell death
2 | CS(=O)(=O)O.O=C([C@@H]1CCCN(c2ccc3[nH]c(C4(n5cc(Cl)cn5)CC4)nc3n2)C1)N1CCCC1 [PF-06424439] | strongly reduce | only slightly decreased | inhibition of both enzymes was required for cell death

— US20240148679A1, “METHODS AND COMPOSITIONS RELATED TO TREATMENT AND PREVENTION OF CANCER BY INHIBITION OF DGAT1 AND DGAT2” (Ohio State Innovation Foundation, priority 2019, published 2024)
